Source: the NIST ThermoML archive (doi:10.1021/je800557h)
Numbers after ± are expanded uncertainties.

Settings: Liquid, Ebulliometric method (Recirculating still)

vapor or sublimation pressure (323.15 K) [kPa] | vapor or sublimation pressure (298.15 K) [kPa] | SMILES
33.86 ± 0.38 |  | CC#N [acetonitrile]
12.35 ± 0.087 | 3.166 ± 0.054 | O [water]
